Legend:
[1] = absorption spectrum (maximum absorption wavelength, molar extinction coefficient); type: physicochemical
[2] = singlet oxygen efficiency test, reference rose bengal; type: physicochemical

Compound	maximum absorption wavelength [1] [nm]	molar extinction coefficient [1]	singlet oxygen yield [2] [%]
COc1c2c3c4c(c(NC5CCCCC5C(=O)O)c(=O)c5c(O)cc(OC)c(c6c(OC)cc(NC7CCCCC7C(=O)O)c(c1=O)c63)c54)C=C(C)C2C(C)=O (stereo not drawn) [HB-16d]	625	26,500 M^−1cm^−1	26
COc1c(O)c2c(=O)cc(OC)c3c4c(OC)cc(=O)c5c(NCC(=O)O)c(NCC(=O)O)c6c(c(c1CC(C)=C6)c23)c54 [HC-7a]	620	27,500 M^−1cm^−1	28
COc1c2c3c4c(c(NCCNCCOCCOCCOCCOCCO)c(=O)c5c(NCCNCCOCCOCCOCCOCCO)cc(OC)c(c6c(OC)cc(O)c(c1=O)c63)c54)C=C(C)C2C(C)=O (stereo not drawn) [HB-5c-PEG4]	628	31,500 M^−1cm^−1	35
COc1c2c3c4c(c(NCc5cccc[n+]5C)c(=O)c5c(O)cc(OC)c(c6c(OC)cc(NCc7cccc[n+]7C)c(c1=O)c63)c54)C=C(C)C2C(C)=O (stereo not drawn) [HB-38d-N^+]	626	21,500 M^−1cm^−1	20
CCNNc1c2c3c4c(c(OC)c(=O)c5c(O)cc(OC)c(c6c(OC)cc(NNCC)c(c1=O)c63)c54)C(C(C)=O)C(C)=C2 (stereo not drawn) [HB-36c]	621	33,500 M^−1cm^−1	35
COc1c(NC2CCC(C(=O)O)C2)c2c(=O)cc(OC)c3c4c(OC)cc(=O)c5c(O)c(NC6CCC(C(=O)O)C6)c6c(c(c1C(C(C)=O)C(C)=C6)c23)c54 (stereo not drawn) [HB-19b]	620	25,000 M^−1cm^−1	22
COc1c2c3c4c(c(NC5(CO)CC5)c(=O)c5c(O)cc(OC)c(c6c(OC)cc(NC7(CO)CC7)c(c1=O)c63)c54)C=C(C)C2C(C)=O (stereo not drawn) [HB-35d]	621	31,500 M^−1cm^−1	30
COc1c2c3c4c(c(NCCO)c(=O)c5c(NCCO)cc(OC)c(c6c(OC)cc(O)c(c1=O)c63)c54)C=C(C)C2C(C)=O (stereo not drawn) [HB-2c]	628	31,000 M^−1cm^−1	30
COc1c2c3c4c(c(NCCS(=O)(=O)OC)c(=O)c5c(NCCS(=O)(=O)OC)cc(OC)c(c6c(OC)cc(O)c(c1=O)c63)c54)C=C(C)C2C(C)=O (stereo not drawn) [HB-12c]	622	23,500 M^−1cm^−1	22
COCCOCCOCCOCCOCCOCCOCCOCCOCCOCCOCCOCCOCCC(=O)OCCOCCNc1c2c3c4c(c(OC)c(=O)c5c(O)cc(OC)c(c6c(OC)cc(NCCOCCOC(=O)CCOCCOCCOCCOCCOCCOCCOCCOCCOCCOCCOCCOCCOC)c(c1=O)c63)c54)CC(C)=C2 [HC-1c-PEG12]	626	32,500 M^−1cm^−1	35
COc1c2c3c4c(c(NCCSCCOCCO)c(=O)c5c(O)cc(OC)c(c6c(OC)cc(NCCSCCOCCO)c(c1=O)c63)c54)C=C(C)C2C(C)=O (stereo not drawn) [HB-6d-PEG1]	625	30,500 M^−1cm^−1	32
COc1c(O)c2c(=O)cc(OC)c3c4c(OC)cc(=O)c5c(NCCCC(=O)NCCS(=O)(=O)O)c(NCCCC(=O)NCCS(=O)(=O)O)c6c(c(c1CC(C)=C6)c23)c54 [HC-8a-NH—C2-SO3H]	620	31,000 M^−1cm^−1	32
COCCOCCOCCOCCOCCOCCOCCOCCOCCOCCOCCOCCOC(=O)C1CCC(Nc2c3c4c5c(c(OC)c(=O)c6c(O)cc(OC)c(c7c(OC)cc(NC8CCC(C(=O)OCCOCCOCCOCCOCCOCCOCCOCCOCCOCCOCCOCCOC)C8)c(c2=O)c74)c65)C(C(C)=O)C(C)=C3)C1 (stereo not drawn) [HB-19c-PEG12]	636	33,500 M^−1cm^−1	38
COc1c2c3c4c(c(NCCNCCOCCO)c(=O)c5c(O)c(Br)c(OC)c(c6c(OC)cc(NCCNCCOCCO)c(c1=O)c63)c54)C=C(C)C2C(C)=O (stereo not drawn) [HB-5d-Br-PEG1]	624	29,500 M^−1cm^−1	32
COc1c2c3c4c(c(NCCNCCOCCO)c(=O)c5c(O)cc(OC)c(c6c(OC)cc(NCCNCCOCCO)c(c1=O)c63)c54)C=C(C)C2C(C)=O (stereo not drawn) [HB-5d-PEG1]	625	30,500 M^−1cm^−1	32
CCCCCCNc1c(O)c2c(=O)cc(OC)c3c4c(OC)cc(=O)c5c(NCCCCCC)c(OC)c6c(c(c1C=C(C)C6)c23)c54 [HC-34b]	620	31,500 M^−1cm^−1	32

Compound	maximum absorption wavelength [1] [nm]	molar extinction coefficient [1]	singlet oxygen yield [2] [%]
COc1c(O)c2c(=O)cc(OC)c3c4c(OC)cc(=O)c5c(NCCS(=O)(=O)OC)c(NCCS(=O)(=O)OC)c6c(c(c1C(C(C)=O)C(C)=C6)c23)c54 (stereo not drawn) [HB-12a]	621	23,500 M^−1cm^−1	20
COCCOCCOCCOCCOCCOCCOC(=O)C1CCCC(Nc2c3c4c5c(c(OC)c(=O)c6c(NC7CCCC(C(=O)OCCOCCOCCOCCOCCOCCOC)C7)cc(OC)c(c7c(OC)cc(O)c(c2=O)c74)c65)C(C(C)=O)C(C)=C3)C1 (stereo not drawn) [HB-15d-PEG6]	630	32,500 M^−1cm^−1	32
COc1c2c3c4c(c(NCc5cccc[n+]5CCCC(=O)O)c(=O)c5c(NCc6cccc[n+]6CCCC(=O)O)cc(OC)c(c6c(OC)cc(O)c(c1=O)c63)c54)C=C(C)C2C(C)=O (stereo not drawn) [HB-38c-N—COOH]	622	21,500 M^−1cm^−1	21
COc1c2c3c4c(c(NC5CCC(C(=O)O)C5)c(=O)c5c(NC6CCC(C(=O)O)C6)cc(OC)c(c6c(OC)cc(O)c(c1=O)c63)c54)C=C(C)C2C(C)=O (stereo not drawn) [HB-19c]	622	25,500 M^−1cm^−1	24
CCNc1c2c3c4c(c(OC)c(=O)c5c(NC6CCCC6)cc(OC)c(c6c(OC)c(SCCO)c(O)c(c1=O)c36)c54)C(C(C)=O)C(C)=C2 (stereo not drawn) [HB-S-44d]	622	21,500 M^−1cm^−1	21
COCCOCCNC(=O)CCNc1c(NCCC(=O)NCCOCCOC)c2c(=O)cc(OC)c3c4c(OC)cc(=O)c5c(O)c(OC)c6c(c(c1C=C(C)C6C(C)=O)c23)c54 (stereo not drawn) [HB-10a-NH-PEG1]	621	31,500 M^−1cm^−1	30
CCCCCCNc1c2c3c4c(c(OC)c(=O)c5c(O)cc(OC)c(c6c(OC)cc(NCCCCCC)c(c1=O)c63)c54)CC(C)=C2 [HC-34c]	624	32,500 M^−1cm^−1	38
COCCOCCC(=O)OCCOCCNc1c2c3c4c(c(OC)c(=O)c5c(O)cc(OC)c(c6c(OC)cc(NCCOCCOC(=O)CCOCCOC)c(c1=O)c63)c54)C(C(C)=O)C(C)=C2 (stereo not drawn) [HB-1c-PEG1]	626	33,000 M^−1cm^−1	38
CCNc1c(O)c2c(=O)c(SCCO)c(OC)c3c4c(OC)cc(=O)c5c(NC6CCCC6)c(OC)c6c(c(c1C=C(C)C6C(C)=O)c23)c54 (stereo not drawn) [HB-S-44b]	622	21,000 M^−1cm^−1	18
COc1c(O)c2c(=O)cc(OC)c3c4c(OC)cc(=O)c5c(NCCSCCOCCO)c(NCCSCCOCCO)c6c(c(c1C(C(C)=O)C(C)=C6)c23)c54 (stereo not drawn) [HB-6a-PEG1]	622	30,500 M^−1cm^−1	28
COCCOCCOCCOCCOCCOCCOCCOCCOCCOCCOCCOCCOCCN1CCC(CNc2c3c4c5c(c(OC)c(=O)c6c(NCC7CCN(CCOCCOCCOCCOCCOCCOCCOCCOCCOCCOCCOCCOCCOC)CC7)cc(OC)c(c7c(OC)cc(O)c(c2=O)c74)c65)C(C(C)=O)C(C)=C3)CC1 (stereo not drawn) [HB-32d-PEG12]	632	31,500 M^−1cm^−1	33
COc1c(NCC2CCC(C(=O)NCCCC[P+](c3ccccc3)(c3ccccc3)c3ccccc3)CC2)c2c(=O)cc(OC)c3c4c(OC)cc(=O)c5c(O)c(NCC6CCC(C(=O)NCCCC[P+](c7ccccc7)(c7ccccc7)c7ccccc7)CC6)c6c(c(c1CC(C)=C6)c23)c54 (stereo not drawn) [HC-13b-NH—C4-PPh3+]	626	30,500 M^−1cm^−1	34
COCCOCCOCCOCCOCCOCCOCCOCCOCCOCCOCCOCCOC(=O)C1CCC(Nc2c3c4c5c(c(OC)c(=O)c6c(O)cc(OC)c(c7c(OC)cc(NC8CCC(C(=O)OCCOCCOCCOCCOCCOCCOCCOCCOCCOCCOCCOCCOC)CC8)c(c2=O)c74)c65)C(C(C)=O)C(C)=C3)CC1 (stereo not drawn) [HB-14c-PEG12]	628	33,500 M^−1cm^−1	38
COc1c2c3c4c(c(NC(CO)C(=O)O)c(=O)c5c(NC(CO)C(=O)O)cc(OC)c(c6c(OC)cc(O)c(c1=O)c63)c54)C=C(C)C2C(C)=O (stereo not drawn) [HB-23c]	622	22,000 M^−1cm^−1	22
COCCOCCOCCOCCOCCOCCOCCOCCOCCNC(=O)C1CCC(CNc2c3c4c5c(c(OC)c(=O)c6c(NCC7CCC(C(=O)NCCOCCOCCOCCOCCOCCOCCOCCOCCOC)CC7)cc(OC)c(c7c(OC)cc(O)c(c2=O)c74)c65)C(C(C)=O)C(C)=C3)CC1 (stereo not drawn) [HB-13d-NH-PEG8]	628	31,500 M^−1cm^−1	32
COCCOCCOCCOCCOCCOCCOCCOCCOCCOCCOCCOCCOCCC(=O)OC1CCC(Nc2c3c4c5c(c(OC)c(=O)c6c(O)cc(OC)c(c7c(OC)cc(NC8CCC(OC(=O)CCOCCOCCOCCOCCOCCOCCOCCOCCOCCOCCOCCOCCOC)C8)c(c2=O)c74)c65)C(C(C)=O)C(C)=C3)C1 (stereo not drawn) [HB-20c-PEG12]	632	32,500 M^−1cm^−1	34

— US11439707B2, “Hypocrellin derivative substituted both in a peri-position and in 2-position by amino, preparation method, and application thereof” (priority 2017, dated 2022)
